In experiment [1] the test system is K562 cells. As to conditions: 48 h, MTT, mean ± SD; cited from earlier work.
In experiment [2] the test system is HeLa cells. As to conditions: 48 h, MTT, mean ± SD; cited from earlier work.
Experiment [3] deals with HUVEC (human umbilical vein endothelial cells). The conditions noted are these: 48 h, MTT, mean ± SD; cited from earlier work.
Experiment [4] relates to CFPAC cells. The experiment can be described thus: MTT cytotoxicity assay, CFPAC. The class given is cell-based. As to conditions: Homo sapiens, 48 h, mean ± SD. As for the experimental part: (§1) Human umbilical vein endothelial cells (purchased from Life Technologies, Carlsbad, CA, USA) were cultured according to the manufacturer’s instructions in Medium 200 supplemented with Low Serum Growth Supplement. 1 × 10^4 cells were seeded on each well on a 96-well plate (Nunc, Roskilde, Denmark). The HeLa (human cervix carcinoma, cat. #93021013), CFPAC (human pancreatic adenocarcinoma, cat. #91112501), K562 (chronic myelogenous leukemia, cat. #89121407), HL-60 (acute myelogenous leukemia, cat. #98070106), and MOLT-4 (Human acute T lymphoblastic leukemia, cat. #85011413) cells were purchased from European Collection of Authenticated Cell Cultures (ECACC). They were cultured in an RPMI 1640 medium supplemented with antibiotics (streptomycin, penicillin) and 10% fetal calf serum (20% for HL60), in a 5% CO2-95% air atmosphere. 7 × 10^3 cells were seeded on each well on a 96-well plate (Nunc). 24 hours later the cells were exposed to the test compounds. The aliquots of stock solutions of the test compounds (freshly prepared in DMSO) were added to the cell cultures to yield final concentrations of 1, 10^−1, 10^−2, 10^−3, 10^−4, and 10^−5 mM. The concentration of DMSO in the cell culture medium was 1%. The IC50 value (the concentration of a test compound required to reduce the cell survival fraction to 50% of the control) was calculated from a dose-response curve and used as a measure of cellular sensitivity to a given treatment. The IC50 values are given as means (± standard deviation (SD)) from 2 independent experiments with 4 technical replicates. The cytotoxicity of all compounds was determined by the MTT (3-(4,5-dimethylthiazol-2-yl)-2,5-diphenyltetrazolium bromide) assay (Sigma, St. Louis, MO, USA). Briefly, after 24 h or 48 h of incubation with a given compound, the cells were treated with the MTT reagent and incubation was continued for 2 h. MTT-formazan crystals were dissolved in 20% SDS and 50% DMF at pH 4.7 and VIS light absorption was measured at 570 and 650 nm on a microplate reader FLUOstar Omega (BMG Labtech, Offenburg, Germany). As a control (100% viability), cells grown in the presence of 1% DMSO were used.
On the technique in general: Formazan colour is commonly taken as a measure of viable cells.

Experiment [5] deals with MOLT-4 cells. The experiment can be described thus: MTT cytotoxicity assay, MOLT-4. The class given is cell-based. The conditions noted are these: Homo sapiens, 48 h, mean ± SD. As for the experimental part: as §1
Experiment [6] has as its system HL-60 cells. The conditions noted are these: 48 h, MTT, mean ± SD; cited from earlier work.
In experiment [7] the test system is K562 cells. The experiment in a line: MTT cytotoxicity assay, K562. Type of experiment: cell-based. The conditions noted are these: Homo sapiens, 48 h, mean ± SD. As for the experimental part:
as §1

The test system of experiment [8] is HUVEC (human umbilical vein endothelial cells). The experiment in a line: MTT cytotoxicity assay, HUVEC. Type of experiment: cell-based. As to conditions: 48 h, mean ± SD. The protocol:
as §1

Experiment [9] has as its system HeLa cells. The experiment can be described thus: MTT cytotoxicity assay, HeLa. Type of experiment: cell-based. The conditions noted are these: Homo sapiens, 48 h, mean ± SD. As for the experimental part:
as §1

Experiment [10] concerns the target ABC50 (Homo sapiens, UniProt Q8NE71). The experiment in a line: Streptavidin-agarose pull-down from K562 cell lysate with LC-MS-MS/MS and Western blot identification. Set-up: endogenous in cells; host or cells: K562 cell lysate. Type of experiment: binding. As for the experimental part: Cells were lysed in TBS buffer containing 1% Triton X-100 and Complete® protease inhibitor cocktail (Roche) for 15 min on ice with occasional vortexing. Insoluble material was centrifuged (12,000 rpm, 15 min, 4 °C) and supernatants were collected. Total protein concentration was measured with DC Protein Assay (Bio-Rad, Hercules, CA, USA). Cell lysates containing 30 µg of total protein were mixed with Laemli buffer supplemented with SDS and β-mercaptoethanol, denatured (10 min, 95 °C) and subjected to sodium dodecyl sulfate polyacrylamide gel electrophoresis (SDS-PAGE) electrophoresis (4% stacking and 10% resolving gels). Resolved proteins were electrotransferred (semi-dry, 90 min, 1.5 mA/cm^2) to a 0.45 µm nitrocellulose membrane (Thermo Scientific, Waltham, MA, USA). Membranes were blocked for 2 hours in TBST buffer (20 mM Tris-HCl pH 7.5, 0.9% NaCl, 0.1% Tween 20) containing 5% BSA (BioShop, Burlington, ON, Canada) and probed with primary antibodies (overnight at 4 °C) diluted in TBST buffer with 0.5% BSA. Tubulin served as a loading control for IB experiments. Anti IKZF3 (rabbit monoclonal, dilution 1:500), anti IKZF1 (rabbit polyclonal, dilution 1:500) were from Abcam. Anti IRF4 (rabbit polyclonal, dilution 1:500) were from Cell Signaling Technology. Anti α-tubulin (mouse monoclonal IgG, 1:1000) was from Sigma Aldrich. Anti ABC50 antibodies (mouse monoclonal ABC5H06, dilution 1:100) was from Abcam. After extensive washing with TBST buffer, membranes were probed with secondary goat anti-rabbit or goat anti-mouse HRP-conjugated IgG (1:5000 in TBST, Santa Cruz Biotech, Dallas, TX, USA) for 45 min at room temperature. Membranes were washed in TBST buffer and the chemiluminescent signal was developed with ECL Plus Western Blotting Substrate (Thermo Scientific) and visualized in Syngene G:Box detection system. Protein bands intensities were analysed using Image Quant (version 5.0, GE Healthcare Life Sciences, Pittsburgh, PA, USA).
300 nmoles of biotinylated 6b was added to 0.6 mL of the high capacity streptavidin agarose resin (Thermo Scientific, Waltham, MA, USA) equilibrated in 50% DMSO and incubated for 2 h (room temperature, gently mixing, total volume 0.7 mL). The K562 cell lysate was prepared in the buffer containing 0.5% NP-40 and supplemented with protease inhibitors coctail (Roche). Next, the beads with immobilized 6b were added to the K562 cell lysate (9 mg of total protein) and incubated for 2 h at 4 °C with gently mixing. As a control, K562 cell lysate incubated with the streptavidin agarose beads was used. After incubation the beads were centrifuged (2000 rpm, 2 min, 4 °C) and washed 6 times with 5 mL of lysis buffer. After the last wash, the beads were resuspended in Laemli buffer and denatured 10 min at 95 °C. Released proteins (40 µL/well) were separated by SDS-PAGE (4% stacking, 8% resolving gel) and silver stained with Pierce Silver Stain Kit (Thermo Scientific, Waltham, MA, USA). Bands of interest were cut out of the gel and digested with trypsin. Tryptic peptides were separated by liquid chromatography (LC) and analyzed by LC-MS-MS/MS with Orbitrap mass spectrometer (Thermo). The sequences of the MS/MS spectra were identified by correlation with the human protein sequence database (Sprot 2016_11, H.) using MASCOT software (version 2.6.2, Matrix Science Inc., Boston, MA, USA) (http://www.matrixscience.com/). The significance threshold was p < 0.05 and ions score or expect cut-off was 22.
For orientation: Immunoblotting shows a protein as a band on a membrane.

What is called IC50 is the concentration at which inhibition is half-maximal.

Like-named read-outs stand apart in the source and are kept apart here.

Sequence of ABC50 (Q8NE71 whole entry): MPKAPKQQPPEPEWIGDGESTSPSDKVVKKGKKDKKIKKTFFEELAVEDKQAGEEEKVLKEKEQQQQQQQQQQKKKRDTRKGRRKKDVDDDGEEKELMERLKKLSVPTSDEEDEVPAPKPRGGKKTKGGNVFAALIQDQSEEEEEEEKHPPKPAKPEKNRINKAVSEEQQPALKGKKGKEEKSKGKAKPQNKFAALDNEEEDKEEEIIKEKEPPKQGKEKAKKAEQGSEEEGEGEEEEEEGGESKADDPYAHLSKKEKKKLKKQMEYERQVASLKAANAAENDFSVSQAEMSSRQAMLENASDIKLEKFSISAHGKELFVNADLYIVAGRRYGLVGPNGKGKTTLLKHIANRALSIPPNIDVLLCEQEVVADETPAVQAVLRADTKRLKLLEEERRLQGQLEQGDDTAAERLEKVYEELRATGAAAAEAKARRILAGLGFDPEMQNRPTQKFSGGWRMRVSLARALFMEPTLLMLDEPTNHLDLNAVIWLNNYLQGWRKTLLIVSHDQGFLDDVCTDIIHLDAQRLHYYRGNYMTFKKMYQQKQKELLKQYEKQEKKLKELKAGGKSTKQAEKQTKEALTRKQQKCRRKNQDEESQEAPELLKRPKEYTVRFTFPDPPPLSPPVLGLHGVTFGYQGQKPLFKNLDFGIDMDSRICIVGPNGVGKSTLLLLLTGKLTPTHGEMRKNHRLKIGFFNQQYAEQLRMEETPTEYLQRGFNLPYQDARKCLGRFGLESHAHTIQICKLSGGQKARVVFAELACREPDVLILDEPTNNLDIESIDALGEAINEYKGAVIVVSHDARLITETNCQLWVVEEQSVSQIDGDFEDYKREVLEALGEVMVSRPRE

In the case of `CCC12C(=O)C(CC)(C(c3ccccc3)=C1c1ccccc1)C1C(=O)N(CCN(C)C)C(=O)C12` (stereo not drawn) [Compound 1], the IC50 is 10 ± 0.59 µM in [1]; more than 100 µM in experiment [2]; more than 100 µM in [3]; more than 1000 µM in experiment [4]; 20 ± 2.7 µM in experiment [5]; more than 100 µM in experiment [6].
`CCN(CC)CCN1C(=O)C2C(C1=O)C1(CC)C(=O)C2(CC)C(c2ccccc2)=C1c1ccccc1` (stereo not drawn) [Compound 2]: the IC50 in experiment [1] was 4.5 ± 0.29 µM; in experiment [2] it was more than 100 µM; in experiment [3], more than 100 µM; in [4] it was more than 1000 µM; in experiment [5], 30 ± 2.3 µM; in experiment [6] it was more than 100 µM.
Take `CCC12C(=O)C(CC)(C(c3ccccc3)=C1c1ccccc1)C1C(=O)N(CCCN(C)C)C(=O)C12` (stereo not drawn) [Compound 4]: the IC50 is 8 ± 0.53 µM in [1]; more than 100 µM in [2]; more than 100 µM in experiment [3]; more than 1000 µM in experiment [4]; 30 ± 2 µM in [5]; more than 100 µM in [6].
For the compound `NCC(O)CN1C(=O)C2C(C1=O)C1(c3ccccc3)CC2(c2ccccc2)C(c2ccccc2)=C1c1ccccc1` (stereo not drawn) [Compound 6a, 4-[-3-(amino)-2-hydroxypropyl]-1,7,8,9-tetraphenyl-4-azatricyclo[5.2.1.0^2,6]dec-8-ene-3,5-dione], the IC50 in experiment [7] was 12 ± 1.5 µM; in [8], more than 100 µM; in experiment [9] it was 20 ± 1.9 µM; in experiment [5] it was 5 ± 0.59 µM.
For `O=C(CCCCC1SCC2NC(=O)NC21)NCC(O)CN1C(=O)C2C(C1=O)C1(c3ccccc3)CC2(c2ccccc2)C(c2ccccc2)=C1c1ccccc1` (stereo not drawn) [Compound 6b], the IC50 in experiment [7] is 7 ± 1.2 µM; in experiment [8], 3.8 ± 0.22 µM; in experiment [9] it was 64 ± 10 µM; in experiment [5] it was 1.5 ± 0.06 µM. Also, the “Description of protein identified, band 1” value in experiment [10] (K562 lysate pull-down, SDS-PAGE band No. 1, LC-MS-MS/MS) is listed as “Talin-1”. For the same compound, the “Description of protein identified, band 2” value in experiment [10] (K562 lysate pull-down, SDS-PAGE band No. 2, LC-MS-MS/MS) was “ATP-binding cassette sub-family F member 1 (ABCF1 or ABC50)”. In experiment [10] (K562 lysate pull-down, SDS-PAGE band No. 3, LC-MS-MS/MS), the “Description of protein identified, band 3” value is given as “ABC50”. Further, the “Description of protein identified, band 4” value in [10] (K562 lysate pull-down, SDS-PAGE band No. 4, LC-MS-MS/MS) is “ABC50”. Also, the “Description of protein identified, band 5” value in [10] (K562 lysate pull-down, SDS-PAGE band No. 5, LC-MS-MS/MS) is listed as “ABC50”. The “Description of protein identified, band 6” value in experiment [10] (K562 lysate pull-down, SDS-PAGE band No. 6, LC-MS-MS/MS) was “ABC50”. Moreover, the “protein identified by mass spectrometry in pulled-down bands” value in experiment [10] (K562 lysate, immobilized on streptavidin-agarose, five out of six bands) is “ABC50 protein was identified and significantly enriched”. In addition, in experiment [10] (K562 lysate, mouse monoclonal anti ABC50 antibodies), the “Western blot analysis of pull-down material for ABC50” value is recorded as “confirmed the presence of ABC50”.
For `CC(C)C[C@H](NC(=O)[C@H](Cc1ccccc1)NC(=O)c1cnccn1)B(O)O` [bortezomib, reference compound], the IC50 in experiment [1] was 0.04 ± 0.01 µM; in [2] it was 0.05 ± 0.01 µM; in [3] it was less than 0.01 µM; in experiment [6], 0.3 ± 0.1 µM.
`Nc1ccn([C@@H]2O[C@H](CO)[C@@H](O)[C@@H]2O)c(=O)n1` [cytarabine, reference compound]: the IC50 in experiment [1] was 300 ± 19 µM; in experiment [2], more than 1000 µM; in experiment [3], more than 1000 µM; in experiment [6] it was 300 ± 18 µM.
For the compound `COc1cccc2c1C(=O)c1c(O)c3c(c(O)c1C2=O)C[C@@](O)(C(=O)CO)C[C@@H]3O[C@H]1C[C@H](N)[C@H](O)[C@H](C)O1` [doxorubicin, reference compound], the IC50 in experiment [1] is 0.15 ± 0.01 µM; in experiment [2], 0.5 ± 0.01 µM; in experiment [3], 0.1 ± 0.03 µM; in experiment [6], 0.15 ± 0.03 µM.
Turning to `CCc1c2c(nc3ccc(OC(=O)N4CCC(N5CCCCC5)CC4)cc13)-c1cc3c(c(=O)n1C2)COC(=O)[C@]3(O)CC` [irinotecan, reference compound], the IC50 in experiment [1] was 10 ± 0.9 µM; in experiment [2] it was 200 ± 11 µM; in experiment [3], 30 ± 3.7 µM; in experiment [6], 70 ± 2.5 µM.
Consider `CNC(=O)c1cc(Oc2ccc(NC(=O)Nc3ccc(Cl)c(C(F)(F)F)c3)cc2)ccn1` [sorafenib, reference compound], for which the IC50 in experiment [1] is 3 ± 0.3 µM; in experiment [2] it was 20 ± 2.6 µM; in experiment [3], 20 ± 4.1 µM; in experiment [6], 15 ± 0.6 µM.

The values above are taken from paper PMC6770581, “New Thalidomide-Resembling Dicarboximides Target ABC50 Protein and Show Antileukemic and Immunomodulatory Activities” (Biomolecules, 2019).
